Test results: patent US6525001B1, “Substituted pyrimidine and pyridine herbicides” (Mid-American Commercialization Corporation, priority 1997, dated 2003)

Tests used:
Assay in all cases: Test B pre-/postemergence
Assay type in all cases: in vivo
Design in all cases: key: 0 is no effect; 10 is complete control
[1] = tested on: wild oat (Avena fatua)
Summary of the method: (§1)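 Compounds in a surfactant-containing, non-phytotoxic solvent blend are applied to freshly planted seed (preemergence) and, concurrently, to seedlings of 2 to 18 cm at 1–4 leaves (postemergence). Plants stay in the greenhouse twelve to sixteen days and are then scored visually from 0 (no effect) to 10 (complete control).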

[2] = tested on: blackgrass (Alopecurus myosuroides)
Summary of the method: as §1

[3] = tested on: purple nutsedge (Cyperus rotundus)
Summary of the method: as §1

[4] = tested on: crabgrass (Digitaria sanguinalis)
Summary of the method: as §1

[5] = tested on: soybean (Glycine max)
Summary of the method: as §1

[6] = Preemergence, Rate 62 g/ha, scale of 0 to 10

Cc1cnc(-c2ccc(C(F)(F)F)cc2)nc1Cn1ccc(C(F)(F)C(F)(F)F)n1 [Compound 14]
2: Plant response rating, Wild oats ([1]; Rate 500 g/ha, Preemergence) | Plant response rating, Blackgrass ([2]; Rate 125 g/ha, Postemergence) | Plant response rating, Crabgrass ([4]; Rate 62 g/ha, Postemergence) | Plant response rating, Crabgrass ([4]; Rate 125 g/ha, Postemergence) | Plant response rating, Crabgrass ([4]; Rate 250 g/ha, Postemergence)
1: Plant response rating, Wild oats ([1]; Rate 125 g/ha, Postemergence) | Plant response rating, Blackgrass ([2]; Rate 62 g/ha, Postemergence) | Crabgrass plant response rating ([4]; Rate 125 g/ha, Preemergence) | Plant response rating, Soybean ([5]; Rate 500 g/ha, Preemergence)
0: Plant response rating, Wild oats ([1]; Rate 62 g/ha, Postemergence) | Wild oats plant response rating ([1]; Rate 62 g/ha, Preemergence) | Wild oats plant response rating ([1]; Rate 125 g/ha, Preemergence) | Plant response rating, Wild oats ([1]; Rate 250 g/ha, Preemergence) | Blackgrass plant response rating ([2]; Rate 62 g/ha, Preemergence) | Blackgrass plant response rating ([2]; Rate 125 g/ha, Preemergence) | Plant response rating, Blackgrass ([2]; Rate 250 g/ha, Preemergence) | Plant response rating, Nutsedge ([3]; Rate 62 g/ha, Postemergence) | Nutsedge plant response rating ([3]; Rate 62 g/ha, Preemergence) | Plant response rating, Nutsedge ([3]; Rate 125 g/ha, Postemergence) | Nutsedge plant response rating ([3]; Rate 125 g/ha, Preemergence) | Plant response rating, Nutsedge ([3]; Rate 250 g/ha, Postemergence) | Plant response rating, Nutsedge ([3]; Rate 250 g/ha, Preemergence) | Plant response rating, Nutsedge ([3]; Rate 500 g/ha, Postemergence) | Plant response rating, Nutsedge ([3]; Rate 500 g/ha, Preemergence) | Crabgrass plant response rating ([4]; Rate 62 g/ha, Preemergence) | Soybean plant response rating ([5]; Rate 62 g/ha, Preemergence) | Soybean plant response rating ([5]; Rate 125 g/ha, Preemergence) | Plant response rating, Soybean ([5]; Rate 250 g/ha, Preemergence)
8: Plant response rating, Crabgrass ([4]; Rate 500 g/ha, Preemergence)
4: Plant response rating, Crabgrass ([4]; Rate 500 g/ha, Postemergence) | Plant response rating, Soybean ([5]; Rate 62 g/ha, Postemergence) | Plant response rating, Soybean ([5]; Rate 125 g/ha, Postemergence)
3: Plant response rating, Wild oats ([1]; Rate 250 g/ha, Postemergence) | Plant response rating, Wild oats ([1]; Rate 500 g/ha, Postemergence) | Plant response rating, Blackgrass ([2]; Rate 250 g/ha, Postemergence) | Plant response rating, Blackgrass ([2]; Rate 500 g/ha, Postemergence) | Plant response rating, Blackgrass ([2]; Rate 500 g/ha, Preemergence)
7: Plant response rating, Crabgrass ([4]; Rate 250 g/ha, Preemergence)
5: Plant response rating, Soybean ([5]; Rate 250 g/ha, Postemergence) | Plant response rating, Soybean ([5]; Rate 500 g/ha, Postemergence)

Cc1cnc(-c2ccc(C(F)(F)F)cc2)nc1C(=O)c1ccc(C(F)(F)F)cc1 [Compound 74]
1: Wild oats plant response rating ([1]; Rate 62 g/ha, Postemergence) | Wild oats plant response rating ([1]; Rate 125 g/ha, Postemergence) | Plant response rating, Wild oats ([1]; Rate 250 g/ha, Postemergence) | Plant response rating, Wild oats ([1]; Rate 500 g/ha, Postemergence) | Plant response rating, Blackgrass ([2]; Rate 500 g/ha, Postemergence) | Plant response rating, Crabgrass ([4]; Rate 250 g/ha, Postemergence) | Plant response rating, Crabgrass ([4]; Rate 500 g/ha, Preemergence)
3: Plant response rating, Crabgrass ([4]; Rate 500 g/ha, Postemergence) | Plant response rating, Soybean ([5]; Rate 500 g/ha, Postemergence)
2: Soybean plant response rating ([5]; Rate 62 g/ha, Postemergence) | Soybean plant response rating ([5]; Rate 125 g/ha, Postemergence) | Plant response rating, Soybean ([5]; Rate 250 g/ha, Postemergence)
0: Plant response rating, Wild oats [1, 6] | Plant response rating, Wild oats ([1]; Rate 125 g/ha, Preemergence) | Plant response rating, Wild oats ([1]; Rate 250 g/ha, Preemergence) | Plant response rating, Wild oats ([1]; Rate 500 g/ha, Preemergence) | Plant response rating, Blackgrass [2, 6] | Blackgrass plant response rating ([2]; Rate 62 g/ha, Postemergence) | Blackgrass plant response rating ([2]; Rate 125 g/ha, Postemergence) | Plant response rating, Blackgrass ([2]; Rate 125 g/ha, Preemergence) | Plant response rating, Blackgrass ([2]; Rate 250 g/ha, Postemergence) | Plant response rating, Blackgrass ([2]; Rate 250 g/ha, Preemergence) | Plant response rating, Blackgrass ([2]; Rate 500 g/ha, Preemergence) | Plant response rating, Nutsedge [3, 6] | Nutsedge plant response rating ([3]; Rate 62 g/ha, Postemergence) | Nutsedge plant response rating ([3]; Rate 125 g/ha, Postemergence) | Plant response rating, Nutsedge ([3]; Rate 125 g/ha, Preemergence) | Plant response rating, Nutsedge ([3]; Rate 250 g/ha, Postemergence) | Plant response rating, Nutsedge ([3]; Rate 250 g/ha, Preemergence) | Plant response rating, Nutsedge ([3]; Rate 500 g/ha, Preemergence) | Plant response rating, Crabgrass [4, 6] | Crabgrass plant response rating ([4]; Rate 62 g/ha, Postemergence) | Crabgrass plant response rating ([4]; Rate 125 g/ha, Postemergence) | Plant response rating, Crabgrass ([4]; Rate 125 g/ha, Preemergence) | Plant response rating, Crabgrass ([4]; Rate 250 g/ha, Preemergence) | Plant response rating, Soybean [5, 6] | Plant response rating, Soybean ([5]; Rate 125 g/ha, Preemergence) | Plant response rating, Soybean ([5]; Rate 250 g/ha, Preemergence) | Plant response rating, Soybean ([5]; Rate 500 g/ha, Preemergence)

Cc1cnc(-c2ccc(C(F)(F)F)cc2)nc1Cn1cc(I)cn1 [Compound 12]
6: Plant response rating, Blackgrass ([2]; Rate 250 g/ha, Preemergence) | Plant response rating, Blackgrass ([2]; Rate 500 g/ha, Preemergence)
1: Wild oats plant response rating ([1]; Rate 62 g/ha, Preemergence) | Blackgrass plant response rating ([2]; Rate 62 g/ha, Preemergence)
10: Plant response rating, Crabgrass ([4]; Rate 500 g/ha, Preemergence)
3: Plant response rating, Wild oats ([1]; Rate 62 g/ha, Postemergence) | Plant response rating, Wild oats ([1]; Rate 125 g/ha, Postemergence) | Plant response rating, Blackgrass ([2]; Rate 125 g/ha, Postemergence) | Plant response rating, Crabgrass ([4]; Rate 125 g/ha, Postemergence) | Plant response rating, Crabgrass ([4]; Rate 250 g/ha, Postemergence) | Plant response rating, Crabgrass ([4]; Rate 500 g/ha, Postemergence) | Plant response rating, Soybean ([5]; Rate 62 g/ha, Postemergence) | Plant response rating, Soybean ([5]; Rate 250 g/ha, Preemergence) | Plant response rating, Soybean ([5]; Rate 500 g/ha, Preemergence)
5: Plant response rating, Wild oats ([1]; Rate 500 g/ha, Postemergence) | Plant response rating, Soybean ([5]; Rate 125 g/ha, Postemergence) | Plant response rating, Soybean ([5]; Rate 250 g/ha, Postemergence) | Plant response rating, Soybean ([5]; Rate 500 g/ha, Postemergence)
4: Plant response rating, Wild oats ([1]; Rate 250 g/ha, Postemergence) | Plant response rating, Wild oats ([1]; Rate 250 g/ha, Preemergence) | Plant response rating, Wild oats ([1]; Rate 500 g/ha, Preemergence) | Blackgrass plant response rating ([2]; Rate 125 g/ha, Preemergence) | Plant response rating, Blackgrass ([2]; Rate 250 g/ha, Postemergence) | Plant response rating, Blackgrass ([2]; Rate 500 g/ha, Postemergence) | Crabgrass plant response rating ([4]; Rate 62 g/ha, Preemergence) | Crabgrass plant response rating ([4]; Rate 125 g/ha, Preemergence)
0: Plant response rating, Nutsedge ([3]; Rate 62 g/ha, Postemergence) | Nutsedge plant response rating ([3]; Rate 62 g/ha, Preemergence) | Plant response rating, Nutsedge ([3]; Rate 125 g/ha, Postemergence) | Nutsedge plant response rating ([3]; Rate 125 g/ha, Preemergence) | Plant response rating, Nutsedge ([3]; Rate 250 g/ha, Postemergence) | Plant response rating, Nutsedge ([3]; Rate 250 g/ha, Preemergence) | Plant response rating, Nutsedge ([3]; Rate 500 g/ha, Postemergence) | Plant response rating, Nutsedge ([3]; Rate 500 g/ha, Preemergence) | Soybean plant response rating ([5]; Rate 62 g/ha, Preemergence)
8: Plant response rating, Crabgrass ([4]; Rate 250 g/ha, Preemergence)
2: Wild oats plant response rating ([1]; Rate 125 g/ha, Preemergence) | Plant response rating, Blackgrass ([2]; Rate 62 g/ha, Postemergence) | Plant response rating, Crabgrass ([4]; Rate 62 g/ha, Postemergence) | Soybean plant response rating ([5]; Rate 125 g/ha, Preemergence)
